Data taken from patent US11607421B2, “Ethanolamine-based lipid biosynthetic compounds, method of making and use thereof” (Metanoi Therapeutics, Inc., priority 2016, dated 2023).

Columns and labels:
[1] = Acute toxicity, single oral limit dose; assay type: in vivo, Sprague-Dawley (SD) rats; conditions: single oral dose of 5 g/kg, five male and five female rats, monitored one week
PC-3 cells [2] = assay: Clonogenic cell survival (colony) assay; assay type: cell-based, human; conditions: 2 mg/ml, 48 h treatment, colonies after 10 days
Method: Next, a clonogenic cell survival assay was performed to assess the reproductive capacity of cells upon drug removal.
After 48 h, drug containing medium was replaced by medium containing MTT (tetrazolium bromide) at a concentration of 0.5 mg/ml. The yellow tetrazolium salt is reduced to insoluble purple formazan by viable cells. After 4 h of incubation in dark, formazan crystals produced by viable cells were dissolved by 200 μl DMSO and the amount of formazan crystals formed was quantified by recording the absorbance at 570 nm using multi-well plate reader. […] After 10 days, colonies were fixed with 4% formaldehyde, stained with crystal violet and counted.

in vivo = assay: in vivo; design: species or system SD rats; conditions: SD, rat, po, 40 mg/kg
From the text: These formulations differ in pH and/or acid used to adjust the pH.

PC-3 cells [3] = assay: Annexin V binding assay (flow cytometry); assay type: cell-based, human; conditions: 2.0 mg/ml Etn
Method: Annexin V binding assays were performed for control and 2.0 mg/ml Etn-treated cells along with counterstaining with 7-AAD to distinguish between dead and apoptotic cells. Annexin V positive cells were analyzed using flow cytometry. Representative scatter plots for control and Etn-treated cells stained with 7-AAD and annexin V are shown.
Annexin-V is known to bind to phosphatidylserine (PS) lipids which flip to the outer leaflet of plasma membrane in apoptotic cells (Vermes I. et al., J. Immunol. Methods, 1995, vol. 184, pp. 39-51). Annexin-V binding to PS is therefore a good indicator of cells undergoing apoptosis.

PC-3 cells [4] = assay: Oxygen consumption rate (OCR), oxygen electrode; assay type: cell-based, human; conditions: 2 mg/ml Etn, 48 h, 1×10^6 cells/ml
Method: (§1) OCR was measured using an oxygen electrode.
OCRs were measured using a computer-interfaced oxygen electrode (Hansatech Instruments, Inc., Norfolk, England) by monitoring the initial rate of oxygen consumption at 37° C. and atmospheric oxygen concentration (230 μM O2).

plasma proteins = assay: Binding to proteins in plasma (ultrafiltration); assay type: in vitro ADME; conditions: pH 7.4, 37° C., 30 min
Method: Plasma from human, dog, rat and mouse were thawed and incubated at 37° C. The pH of the plasma was adjusted to 7.4 using dilute hydrochloric acid. A 5 μL aliquot of ethanolamine (2 mM) was spiked into 995 μL of plasma and incubated at 37° C. for 30 min in CO2 incubator. One mL aliquots of plasma were transferred to ultrafiltration tubes for analysis. All ultrafiltration tubes were centrifuged at 1000 g for 20 min. Samples from top and bottom chamber of ultrafiltration tube were collected. Equal volume of blank plasma and ultrafiltrate were mixed to ultrafiltrate and plasma to make the matrix same. Samples were processed by using acetonitrile containing internal standard and subjected to LC/MS/MS analysis.

[5] = tested on: pRb, Cdk4, Cdk2, p21, c-PARP, Bim, Bcl-2; assay: Immunoblot of cell lysates; assay type: cell-based, human; conditions: PC-3 cells, 2 mg/ml Etn for 48 h
Method: as §1
Proteins were resolved by polyacrylamide gel electrophoresis and transferred onto polyvinylidene difluoride membranes (Millipore, Billerica, Mass., USA). The membranes were blocked in Tris-buffered saline containing 0.05% Tween-20 and 5% fat-free dry milk and incubated first with primary antibodies and then with horseradish peroxidase-conjugated secondary antibodies. Specific proteins were visualized with enhanced chemiluminescence detection reagent according to the manufacturer's instructions (Pierce Biotechnology, Rockford, Ill., USA).

HCT116 = HCT116 colon tumor xenograft; conditions: 40 mg/kg Etn oral, 2 weeks
PC-3-luc = PC-3-luc prostate tumor xenograft
CYP2B6 = CYP2B6 (Homo sapiens, UniProt P20813); assay: CYP inhibition in human liver microsomes
Chain of CYP2B6 (P20813 whole entry): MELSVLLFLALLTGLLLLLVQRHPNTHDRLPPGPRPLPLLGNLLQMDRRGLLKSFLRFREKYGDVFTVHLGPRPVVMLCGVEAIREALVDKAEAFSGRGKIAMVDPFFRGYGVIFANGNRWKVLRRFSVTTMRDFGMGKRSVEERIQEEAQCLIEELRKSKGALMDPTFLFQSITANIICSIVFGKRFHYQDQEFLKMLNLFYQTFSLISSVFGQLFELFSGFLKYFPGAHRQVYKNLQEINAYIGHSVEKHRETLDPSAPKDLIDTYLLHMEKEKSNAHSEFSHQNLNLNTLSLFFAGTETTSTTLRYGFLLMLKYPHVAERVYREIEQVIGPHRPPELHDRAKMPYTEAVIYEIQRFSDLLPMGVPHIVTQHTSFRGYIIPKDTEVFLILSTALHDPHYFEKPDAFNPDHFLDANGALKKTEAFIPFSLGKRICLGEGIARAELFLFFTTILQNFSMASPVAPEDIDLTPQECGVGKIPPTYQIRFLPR

CYP2C9 = CYP2C9 (Homo sapiens, UniProt P11712); assay: CYP inhibition in human liver microsomes
Chain of CYP2C9 (P11712 whole entry): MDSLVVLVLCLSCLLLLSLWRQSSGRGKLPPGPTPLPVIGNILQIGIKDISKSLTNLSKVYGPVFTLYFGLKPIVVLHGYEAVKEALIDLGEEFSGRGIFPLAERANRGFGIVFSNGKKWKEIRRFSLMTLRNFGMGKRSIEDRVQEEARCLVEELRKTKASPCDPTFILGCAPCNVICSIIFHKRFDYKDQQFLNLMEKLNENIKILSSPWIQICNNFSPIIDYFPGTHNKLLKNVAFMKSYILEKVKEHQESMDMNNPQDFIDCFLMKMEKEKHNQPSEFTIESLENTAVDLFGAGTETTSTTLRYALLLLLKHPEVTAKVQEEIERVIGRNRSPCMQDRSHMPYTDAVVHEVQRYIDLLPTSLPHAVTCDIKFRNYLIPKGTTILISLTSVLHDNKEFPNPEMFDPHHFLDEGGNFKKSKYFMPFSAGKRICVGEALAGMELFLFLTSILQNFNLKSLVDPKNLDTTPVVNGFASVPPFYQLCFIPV

CYP2E1 = CYP2E1 (Homo sapiens, UniProt P05181); assay: CYP inhibition in human liver microsomes
Chain of CYP2E1 (P05181 whole entry): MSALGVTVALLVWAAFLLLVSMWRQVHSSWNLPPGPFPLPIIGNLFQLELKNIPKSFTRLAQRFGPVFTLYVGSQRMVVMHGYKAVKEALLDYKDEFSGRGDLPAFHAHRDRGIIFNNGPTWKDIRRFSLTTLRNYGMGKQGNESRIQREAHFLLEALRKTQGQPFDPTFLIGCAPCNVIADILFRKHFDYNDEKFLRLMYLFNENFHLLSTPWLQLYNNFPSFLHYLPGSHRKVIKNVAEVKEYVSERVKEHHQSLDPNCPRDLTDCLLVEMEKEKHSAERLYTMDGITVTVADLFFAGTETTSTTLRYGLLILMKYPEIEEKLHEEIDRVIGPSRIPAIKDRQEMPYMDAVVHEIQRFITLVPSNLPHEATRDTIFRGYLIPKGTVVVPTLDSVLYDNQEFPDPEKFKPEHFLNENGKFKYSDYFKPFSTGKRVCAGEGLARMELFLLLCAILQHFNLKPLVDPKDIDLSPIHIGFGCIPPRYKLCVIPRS

[6] = 40 mg/kg Etn pH 5 (phosphoric acid), oral gavage, 4 weeks

NCCO [Etn, monoethanolamine]
acute toxicity [1]: all rats were alive and did not display any sign of distress or toxicity
decrease in colony numbers compared to control cells (PC-3 cells [2]): ~97%
Tmax (in vivo; female, pH 5): 19.8 min
AUC(0-t) (in vivo; female, pH 5, AUClast): 33800 ng·h/mL
Cmax (in vivo; female, pH 5, Cmax): 24100 ng/mL
Tmax (in vivo; female, pH 7.4): 19.8 min
AUC(0-t) (in vivo; female, pH 7.4, AUClast): 29000 ng·h/mL
Cmax (in vivo; female, pH 7.4, Cmax): 25000 ng/mL
Tmax (in vivo; male, pH 5): 19.8 min
AUC(0-t) (in vivo; male, pH 5, AUClast): 29500 ng·h/mL
Cmax (in vivo; male, pH 5, Cmax): 27100 ng/mL
Tmax (in vivo; male, pH 7.4): 19.8 min
AUC(0-t) (in vivo; male, pH 7.4, AUClast): 27300 ng·h/mL
Cmax (in vivo; male, pH 7.4, Cmax): 23700 ng/mL
annexin-V positive cells (PC-3 cells [3]): ~25%
reduction of OCR compared to controls (PC-3 cells [4]): ~26%
percent bound (plasma proteins; dog plasma): less than 85%
percent bound (plasma proteins; human plasma): less than 85%
percent bound (plasma proteins; mouse plasma): less than 85%
percent bound (plasma proteins; rat plasma): less than 85%
protein expression of apoptosis regulators [5]: an increase in protein expression of proapoptotic markers (c-PARP and Bim) and a decrease in antiapoptotic molecules (Bcl-2)
protein expression of cell-cycle regulators [5]: downregulated protein expression of pRb, Cdk4, and Cdk2, and upregulated p21 expression
body weight (HCT116): did not change significantly
body weight (PC-3-luc; 40 mg/kg Etn oral, over the course of treatment, both models): no apparent changes in body weight
reduction in tumor volume vs untreated control tumors (PC-3-luc; [6]): ~67%
reduction in tumor weight vs untreated control tumors (PC-3-luc; [6]): ~55%
IC50 (CYP2B6): > 100 µM
IC50 (CYP2C9): > 100 µM
IC50 (CYP2E1): > 100 µM
